# Values quoted from earlier work, collected in patent US20210388441A1, “PREDICTING CHRONIC ALLOGRAFT INJURY THROUGH ISCHEMIA-INDUCED DNA METHYLATION” (VIB VZW, priority 2017, published 2021).
# Tested on: macrophage infiltration in kidneys
# Details: through a decrease of macrophage infiltration in for instance kidneys
smiles,measurement,value
CC(=O)C(C)CCC(=O)O (stereo not shown) [ERG240],inflammation,reduced inflammation
